Measured values reported in ChEMBL document CHEMBL4507282, “Data for DCP probe BI-1950” (2021).

Columns and labels:
[1] = system: ALK tyrosine kinase receptor (Homo sapiens), Q9UM73 [C1156Y]; conditions: Compound concentration 1000.0 nM
[2] = target: BMP-2-inducible protein kinase (Homo sapiens) (UniProt Q9NSY1); conditions: Compound concentration 1000.0 nM
[3] = target: Calcium/calmodulin-dependent protein kinase type 1G (Homo sapiens) (UniProt Q96NX5); conditions: Compound concentration 1000.0 nM
[4] = target: Casein kinase I isoform alpha-like (Homo sapiens) (UniProt Q8N752); conditions: Compound concentration 1000.0 nM
[5] = target: Serine/threonine-protein kinase DCLK1 (Homo sapiens) (UniProt O15075); conditions: Compound concentration 1000.0 nM
[6] = target: Ephrin type-A receptor 4 (Homo sapiens) (UniProt P54764); conditions: Compound concentration 1000.0 nM
Chain of Ephrin type-A receptor 4 (Homo sapiens) (P54764 whole entry): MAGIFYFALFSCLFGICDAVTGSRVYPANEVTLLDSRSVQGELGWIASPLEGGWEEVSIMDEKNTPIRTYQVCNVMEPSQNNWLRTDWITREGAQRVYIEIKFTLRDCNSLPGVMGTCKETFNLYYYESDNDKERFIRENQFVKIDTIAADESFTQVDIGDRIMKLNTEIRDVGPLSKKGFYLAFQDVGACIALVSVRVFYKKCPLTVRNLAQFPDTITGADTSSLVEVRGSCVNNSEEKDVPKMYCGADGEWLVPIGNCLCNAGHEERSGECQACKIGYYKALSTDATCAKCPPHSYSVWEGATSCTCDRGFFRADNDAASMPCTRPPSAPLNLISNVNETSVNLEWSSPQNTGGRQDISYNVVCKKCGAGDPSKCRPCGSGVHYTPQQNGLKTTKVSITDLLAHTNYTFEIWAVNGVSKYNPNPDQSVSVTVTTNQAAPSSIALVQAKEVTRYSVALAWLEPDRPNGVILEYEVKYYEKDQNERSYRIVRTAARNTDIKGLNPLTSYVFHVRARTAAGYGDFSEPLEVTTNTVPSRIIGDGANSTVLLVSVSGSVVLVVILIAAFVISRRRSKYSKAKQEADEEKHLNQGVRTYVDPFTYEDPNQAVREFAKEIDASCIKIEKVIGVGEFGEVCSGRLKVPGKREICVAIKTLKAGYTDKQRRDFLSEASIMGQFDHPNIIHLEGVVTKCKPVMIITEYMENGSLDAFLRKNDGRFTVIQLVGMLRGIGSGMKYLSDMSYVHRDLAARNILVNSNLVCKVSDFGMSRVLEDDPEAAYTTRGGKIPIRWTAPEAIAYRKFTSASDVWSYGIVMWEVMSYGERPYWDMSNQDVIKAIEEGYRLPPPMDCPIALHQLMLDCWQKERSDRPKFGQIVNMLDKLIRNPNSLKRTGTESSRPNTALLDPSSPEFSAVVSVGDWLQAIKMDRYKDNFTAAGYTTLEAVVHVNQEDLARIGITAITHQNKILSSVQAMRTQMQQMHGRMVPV

[7] = target: Ephrin type-A receptor 7 (Homo sapiens) (UniProt Q15375); conditions: Compound concentration 1000.0 nM
[8] = target: Ephrin type-A receptor 8 (Homo sapiens) (UniProt P29322); conditions: Compound concentration 1000.0 nM
[9] = target: Mitogen-activated protein kinase 3 (Homo sapiens) (UniProt P27361); conditions: Compound concentration 1000.0 nM
[10] = system: Receptor-type tyrosine-protein kinase FLT3 (Homo sapiens), P36888 [UNDEFINED MUTATION]; conditions: Compound concentration 1000.0 nM
[11] = target: Receptor-type tyrosine-protein kinase FLT3 (Homo sapiens) (UniProt P36888); conditions: Compound concentration 1000.0 nM
[12] = target: Tyrosine-protein kinase FRK (Homo sapiens) (UniProt P42685); conditions: Compound concentration 1000.0 nM
[13] = target: Insulin receptor-related protein (Homo sapiens) (UniProt P14616); conditions: Compound concentration 1000.0 nM
[14] = target: Mitogen-activated protein kinase 10 (Homo sapiens) (UniProt P53779); conditions: Compound concentration 1000.0 nM
[15] = system: Mast/stem cell growth factor receptor Kit (Homo sapiens), P10721 [D816H]; conditions: Compound concentration 1000.0 nM
Chain of Mast/stem cell growth factor receptor Kit (Homo sapiens), P10721 [D816H] (P10721 whole entry D816H): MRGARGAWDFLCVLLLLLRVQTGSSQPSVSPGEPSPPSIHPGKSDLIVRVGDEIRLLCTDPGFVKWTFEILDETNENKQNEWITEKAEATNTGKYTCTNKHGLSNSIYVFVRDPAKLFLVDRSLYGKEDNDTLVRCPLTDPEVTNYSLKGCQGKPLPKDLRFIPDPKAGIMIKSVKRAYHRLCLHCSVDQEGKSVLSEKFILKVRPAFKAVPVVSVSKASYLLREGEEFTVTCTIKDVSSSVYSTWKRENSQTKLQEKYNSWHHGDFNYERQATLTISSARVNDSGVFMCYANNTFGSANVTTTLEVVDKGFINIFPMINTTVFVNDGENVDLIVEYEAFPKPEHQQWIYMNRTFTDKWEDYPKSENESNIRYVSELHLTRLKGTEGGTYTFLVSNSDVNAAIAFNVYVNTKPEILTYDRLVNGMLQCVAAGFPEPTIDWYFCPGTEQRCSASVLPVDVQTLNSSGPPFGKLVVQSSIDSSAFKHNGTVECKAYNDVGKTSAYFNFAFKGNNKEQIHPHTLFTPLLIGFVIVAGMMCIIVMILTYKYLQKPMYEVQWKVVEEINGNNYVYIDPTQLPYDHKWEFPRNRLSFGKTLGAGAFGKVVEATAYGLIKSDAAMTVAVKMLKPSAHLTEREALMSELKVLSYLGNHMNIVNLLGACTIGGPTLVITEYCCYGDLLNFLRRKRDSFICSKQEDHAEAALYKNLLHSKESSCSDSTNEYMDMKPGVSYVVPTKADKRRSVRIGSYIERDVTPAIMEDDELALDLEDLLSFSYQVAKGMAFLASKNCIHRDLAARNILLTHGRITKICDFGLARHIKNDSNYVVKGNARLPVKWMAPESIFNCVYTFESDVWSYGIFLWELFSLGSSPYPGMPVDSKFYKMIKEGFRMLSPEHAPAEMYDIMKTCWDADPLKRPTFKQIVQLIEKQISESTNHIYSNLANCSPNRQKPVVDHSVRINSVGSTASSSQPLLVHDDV

[16] = target: Leukocyte tyrosine kinase receptor (Homo sapiens) (UniProt P29376); conditions: Compound concentration 1000.0 nM
[17] = target: Mitogen-activated protein kinase kinase kinase 3 (Homo sapiens) (UniProt Q99759); conditions: Compound concentration 1000.0 nM
Chain of Mitogen-activated protein kinase kinase kinase 3 (Homo sapiens) (Q99759 whole entry): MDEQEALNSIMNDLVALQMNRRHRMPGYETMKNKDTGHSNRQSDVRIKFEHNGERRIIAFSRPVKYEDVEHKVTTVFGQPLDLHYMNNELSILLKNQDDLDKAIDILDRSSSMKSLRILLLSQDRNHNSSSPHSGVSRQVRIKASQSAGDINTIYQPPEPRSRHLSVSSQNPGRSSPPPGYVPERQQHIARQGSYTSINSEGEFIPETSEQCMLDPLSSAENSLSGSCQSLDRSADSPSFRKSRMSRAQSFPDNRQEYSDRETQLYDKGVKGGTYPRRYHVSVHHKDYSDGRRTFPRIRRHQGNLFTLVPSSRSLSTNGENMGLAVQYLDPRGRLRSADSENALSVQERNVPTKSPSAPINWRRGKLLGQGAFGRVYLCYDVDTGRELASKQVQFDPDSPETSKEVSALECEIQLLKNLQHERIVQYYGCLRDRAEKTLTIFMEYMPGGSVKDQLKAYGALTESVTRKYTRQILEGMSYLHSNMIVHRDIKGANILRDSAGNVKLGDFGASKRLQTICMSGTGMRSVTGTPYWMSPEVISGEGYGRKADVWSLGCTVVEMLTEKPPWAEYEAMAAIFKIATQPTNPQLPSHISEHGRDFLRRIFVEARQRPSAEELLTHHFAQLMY

[18] = target: MAP/microtubule affinity-regulating kinase 4 (Homo sapiens) (UniProt Q96L34); conditions: Compound concentration 1000.0 nM
[19] = target: Myosin light chain kinase (Homo sapiens) (UniProt Q32MK0); conditions: Compound concentration 1000.0 nM
[20] = target: Mitogen-activated protein kinase kinase kinase 9 (Homo sapiens) (UniProt P80192); conditions: Compound concentration 1000.0 nM
[21] = target: Serine/threonine-protein kinase mTOR (Homo sapiens) (UniProt P42345); conditions: Compound concentration 1000.0 nM
[22] = target: Mitogen-activated protein kinase kinase kinase 14 (Homo sapiens) (UniProt Q99558); conditions: Compound concentration 1000.0 nM
[23] = target: Platelet-derived growth factor receptor alpha (Homo sapiens) (UniProt P16234); conditions: Compound concentration 1000.0 nM
[24] = target: Phosphatidylinositol 4,5-bisphosphate 3-kinase catalytic subunit beta isoform (Homo sapiens) (UniProt P42338); conditions: Compound concentration 1000.0 nM
[25] = target: Phosphatidylinositol 4-phosphate 5-kinase type-1 alpha (Homo sapiens) (UniProt Q99755); conditions: Compound concentration 1000.0 nM
[26] = target: cAMP-dependent protein kinase catalytic subunit alpha (Homo sapiens) (UniProt P17612); conditions: Compound concentration 1000.0 nM
[27] = target: Serine/threonine-protein kinase PLK2 (Homo sapiens) (UniProt Q9NYY3); conditions: Compound concentration 1000.0 nM
[28] = target: RAF proto-oncogene serine/threonine-protein kinase (Homo sapiens) (UniProt P04049); conditions: Compound concentration 1000.0 nM
[29] = target: Receptor-interacting serine/threonine-protein kinase 2 (Homo sapiens) (UniProt O43353); conditions: Compound concentration 1000.0 nM
[30] = target: Ribosomal protein S6 kinase alpha-5 (Homo sapiens) (UniProt O75582); conditions: Compound concentration 1000.0 nM
[31] = target: Ribosomal protein S6 kinase alpha-6 (Homo sapiens) (UniProt Q9UK32); conditions: Compound concentration 1000.0 nM
[32] = target: Serine/threonine-protein kinase SBK1 (Homo sapiens) (UniProt Q52WX2); conditions: Compound concentration 1000.0 nM
Chain of Serine/threonine-protein kinase SBK1 (Homo sapiens) (Q52WX2 whole entry): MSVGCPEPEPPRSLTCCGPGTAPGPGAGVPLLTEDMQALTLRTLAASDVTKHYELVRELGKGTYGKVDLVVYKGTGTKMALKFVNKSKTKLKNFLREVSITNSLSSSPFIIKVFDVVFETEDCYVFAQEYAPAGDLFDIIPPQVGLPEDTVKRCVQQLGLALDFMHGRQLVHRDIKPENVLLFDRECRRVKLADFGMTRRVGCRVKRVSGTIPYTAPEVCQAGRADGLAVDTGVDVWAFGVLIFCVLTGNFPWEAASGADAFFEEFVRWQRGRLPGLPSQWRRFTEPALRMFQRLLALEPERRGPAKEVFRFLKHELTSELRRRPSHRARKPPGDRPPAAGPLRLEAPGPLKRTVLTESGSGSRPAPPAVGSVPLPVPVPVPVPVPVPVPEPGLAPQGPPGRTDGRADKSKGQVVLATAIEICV

[33] = target: SRSF protein kinase 1 (Homo sapiens) (UniProt Q96SB4); conditions: Compound concentration 1000.0 nM
Chain of SRSF protein kinase 1 (Homo sapiens) (Q96SB4 whole entry): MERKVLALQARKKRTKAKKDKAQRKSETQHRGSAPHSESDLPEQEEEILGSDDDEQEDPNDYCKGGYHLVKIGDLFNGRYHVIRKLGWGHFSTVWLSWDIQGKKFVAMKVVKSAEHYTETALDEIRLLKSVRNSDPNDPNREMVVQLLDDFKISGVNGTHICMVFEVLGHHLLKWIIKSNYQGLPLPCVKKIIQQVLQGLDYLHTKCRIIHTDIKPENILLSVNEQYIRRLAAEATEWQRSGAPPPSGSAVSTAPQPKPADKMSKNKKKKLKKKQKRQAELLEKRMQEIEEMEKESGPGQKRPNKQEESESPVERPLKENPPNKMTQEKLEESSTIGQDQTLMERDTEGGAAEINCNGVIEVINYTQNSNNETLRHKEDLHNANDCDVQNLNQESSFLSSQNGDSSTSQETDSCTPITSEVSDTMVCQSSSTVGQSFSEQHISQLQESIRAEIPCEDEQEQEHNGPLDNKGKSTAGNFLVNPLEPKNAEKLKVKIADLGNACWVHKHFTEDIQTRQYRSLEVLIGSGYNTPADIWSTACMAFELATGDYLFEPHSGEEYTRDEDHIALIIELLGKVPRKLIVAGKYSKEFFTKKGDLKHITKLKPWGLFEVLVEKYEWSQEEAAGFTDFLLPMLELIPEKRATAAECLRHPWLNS

[34] = target: TGF-beta receptor type-2 (Homo sapiens) (UniProt P37173); conditions: Compound concentration 1000.0 nM
[35] = target: Transient receptor potential cation channel subfamily M member 6 (Homo sapiens) (UniProt Q9BX84); conditions: Compound concentration 1000.0 nM
[36] = target: Serine/threonine-protein kinase ULK1 (Homo sapiens) (UniProt O75385); conditions: Compound concentration 1000.0 nM
[37] = target: Vascular endothelial growth factor receptor 2 (Homo sapiens) (UniProt P35968); conditions: Compound concentration 1000.0 nM
[38] = target: Serine/threonine-protein kinase VRK2 (Homo sapiens) (UniProt Q86Y07); conditions: Compound concentration 1000.0 nM
[39] = target: Serine/threonine-protein kinase 32B (Homo sapiens) (UniProt Q9NY57); conditions: Compound concentration 1000.0 nM
[40] = target: Tyrosine-protein kinase Yes (Homo sapiens) (UniProt P07947); conditions: Compound concentration 1000.0 nM
[41] = target: 5-hydroxytryptamine receptor 2C (Homo sapiens) (UniProt P28335); conditions: Compound concentration 10.0 uM
[42] = target: 5-hydroxytryptamine receptor 5A (Homo sapiens) (UniProt P47898); conditions: Compound concentration 10.0 uM
[43] = target: Alpha-1A adrenergic receptor (Homo sapiens) (UniProt P35348); conditions: Compound concentration 10.0 uM
[44] = target: Alpha-1B adrenergic receptor (Homo sapiens) (UniProt P35368); conditions: Compound concentration 10.0 uM
[45] = target: Alpha-2B adrenergic receptor (Homo sapiens) (UniProt P18089); conditions: Compound concentration 10.0 uM

Chain of BMP-2-inducible protein kinase (Homo sapiens) (Q9NSY1 whole entry, looked up): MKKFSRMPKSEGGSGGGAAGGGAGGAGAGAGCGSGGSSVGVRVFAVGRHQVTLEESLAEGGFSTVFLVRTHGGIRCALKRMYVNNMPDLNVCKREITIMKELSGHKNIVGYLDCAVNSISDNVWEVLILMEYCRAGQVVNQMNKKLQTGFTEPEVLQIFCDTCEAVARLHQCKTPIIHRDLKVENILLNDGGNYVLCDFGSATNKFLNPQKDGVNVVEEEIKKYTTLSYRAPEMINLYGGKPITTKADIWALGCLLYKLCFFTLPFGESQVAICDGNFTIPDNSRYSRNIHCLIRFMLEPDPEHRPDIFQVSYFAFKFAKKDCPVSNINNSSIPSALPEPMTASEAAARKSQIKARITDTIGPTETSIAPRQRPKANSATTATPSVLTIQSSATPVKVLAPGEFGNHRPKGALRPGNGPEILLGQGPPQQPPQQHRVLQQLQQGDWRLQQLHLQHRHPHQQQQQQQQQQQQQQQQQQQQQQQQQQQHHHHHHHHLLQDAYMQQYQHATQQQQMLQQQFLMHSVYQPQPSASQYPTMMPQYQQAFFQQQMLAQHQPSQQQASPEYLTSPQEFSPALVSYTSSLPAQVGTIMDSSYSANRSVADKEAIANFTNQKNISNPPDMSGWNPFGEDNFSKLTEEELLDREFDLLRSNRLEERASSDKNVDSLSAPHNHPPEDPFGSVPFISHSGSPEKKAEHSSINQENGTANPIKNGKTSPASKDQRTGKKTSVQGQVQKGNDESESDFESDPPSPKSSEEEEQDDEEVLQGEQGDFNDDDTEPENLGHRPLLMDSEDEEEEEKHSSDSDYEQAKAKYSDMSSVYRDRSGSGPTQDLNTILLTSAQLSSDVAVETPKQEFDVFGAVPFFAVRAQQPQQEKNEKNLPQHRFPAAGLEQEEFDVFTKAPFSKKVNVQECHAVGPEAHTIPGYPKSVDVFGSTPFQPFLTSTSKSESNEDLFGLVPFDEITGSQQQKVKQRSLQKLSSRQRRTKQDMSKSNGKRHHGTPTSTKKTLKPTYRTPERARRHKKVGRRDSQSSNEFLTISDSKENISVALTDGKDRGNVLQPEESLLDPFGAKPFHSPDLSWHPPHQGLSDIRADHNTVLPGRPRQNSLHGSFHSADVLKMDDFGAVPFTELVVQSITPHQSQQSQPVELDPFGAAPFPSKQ

C[C@@]1(Cc2ccc(C#N)cc2)C(=O)N(c2cc(Cl)cc(Cl)c2)c2ncc(C(=O)NC3(c4nc(C5CCC5)no4)CC3)n21 [BI 9446]
residual activity [1]: 100% | residual activity [2]: 100% | residual activity [3]: 100% | residual activity [4]: 89% | residual activity [5]: 100% | residual activity [6]: 100% | residual activity [7]: 92% | residual activity [8]: 100% | residual activity [9]: 86% | residual activity [10]: 100% | residual activity [11]: 100% | residual activity [12]: 81% | residual activity [13]: 100% | residual activity [14]: 100% | residual activity [15]: 100% | residual activity [16]: 100% | residual activity [17]: 100% | residual activity [18]: 100% | residual activity [19]: 87% | residual activity [20]: 100% | residual activity [21]: 91% | residual activity [22]: 100% | residual activity [23]: 100% | residual activity [24]: 97% | residual activity [25]: 100% | residual activity [26]: 100% | residual activity [27]: 98% | residual activity [28]: 100% | residual activity [29]: 91% | residual activity [30]: 100% | residual activity [31]: 100% | residual activity [32]: 95% | residual activity [33]: 94% | residual activity [34]: 99% | residual activity [35]: 0% | residual activity [36]: 100% | residual activity [37]: 100% | residual activity [38]: 100% | residual activity [39]: 100% | residual activity [40]: 100% | inhibition [41]: 32.9% | inhibition [42]: 2.14% | inhibition [43]: -1.65% | inhibition [44]: 23.8% | inhibition [45]: 15%

C[C@H](NC(=O)c1cnc2n1[C@](C)(Cc1ccc(C#N)cc1)C(=O)N2c1cc(Cl)c(F)c(Cl)c1)C(=O)NC1(c2ccccn2)CC1 [BI 1950]
residual activity [1]: 100% | residual activity [2]: 100% | residual activity [3]: 100% | residual activity [4]: 100% | residual activity [5]: 89% | residual activity [6]: 100% | residual activity [7]: 84% | residual activity [8]: 100% | residual activity [9]: 91% | residual activity [10]: 100% | residual activity [11]: 100% | residual activity [12]: 68% | residual activity [13]: 100% | residual activity [14]: 91% | residual activity [15]: 100% | residual activity [16]: 100% | residual activity [17]: 100% | residual activity [18]: 100% | residual activity [19]: 100% | residual activity [20]: 100% | residual activity [21]: 96% | residual activity [22]: 100% | residual activity [23]: 100% | residual activity [24]: 99% | residual activity [25]: 100% | residual activity [26]: 100% | residual activity [27]: 75% | residual activity [28]: 100% | residual activity [29]: 68% | residual activity [30]: 100% | residual activity [31]: 100% | residual activity [32]: 100% | residual activity [33]: 81% | residual activity [34]: 100% | residual activity [35]: 100% | residual activity [36]: 100% | residual activity [37]: 99% | residual activity [38]: 100% | residual activity [39]: 80% | residual activity [40]: 100% | inhibition [41]: 24.3% | inhibition [42]: 6.14% | inhibition [43]: -8.89% | inhibition [44]: 2.35% | inhibition [45]: -3.79%
